According to patent US20240299328A1, “COMPOSITIONS COMPRISING 15-HEPE AND METHODS OF TREATING AND/OR PREVENTING HEMATOLOGIC DISORDERS AND RELATED DISEASES” (Afimmune Limited, priority 2023, published 2024):
Marks after values point to notes of the source that are not given here.

Columns and labels:
UUO mice = assay: UUO study: Sirius red staining, kidney fibrosis area; type: in vivo
Protocol: Histopathological analysis: To visualize collagen deposition, kidney sections were stained using picro-Sirius red solution. For quantification of interstitial fibrosis area, bright field images in the corticomedullary region were captured using a digital camera at 200-fold magnification, and the positive areas in 5 fields/section were measured.

NAFLD patients = assay: Phase IIa study in NAFLD patients: metabolic, glycemic, lipid and liver parameters; type: in vivo, human
Protocol: The study was planned to include 96 evaluable patients with 32 patients randomized per treatment group.
HOMA-IR/Adipo-IR: HOMA-IR/Adipo-IR levels are a method of measuring insulin resistance. HOMA-IR is calculated by multiplying fasting plasma insulin (FPI) by fasting plasma glucose (FPG), then dividing by the constant 405. Adipo-IR is calculated by multiplying fasting non-esterified fatty acids (NEFA)×fasting insulin. Blood samples were taken to assess HOMA-IR and Adipo-IR at Visit 2/Baseline, Visit 3/Week 2, Visit 4/Week 4, Visit 6/Week 8, Visit 8/Week 12, Visit 10/Week 16 and Follow up Visit 11/Week 20. All subjects were required to have been fasted for a minimum of 8 hours prior to blood sampling. If subjects had not fasted for a minimum of 8 hours, the duration of fasting time was recorded, and subjects encouraged to fast appropriately for the next clinical visit.
Liver stiffness and CAP: Liver stiffness and CAP were assessed using transient elastography (e.g., FibroScan® 502 Touch model or equivalent). Patients were fasted and scanned at the same time of the day, if possible, for baseline (Week 0) and Visit 10 (Week 16). For this assessment the following conditions were met: patients were lying in dorsal decubitus position with the right arm in maximal abduction behind the head, in a similar position to that used for liver biopsy (LB); the tip of the transducer was placed on the skin between the ribs over the right lobe of the liver (the physician took the measurements with the probe placed in the intercostal space); during the FibroScan® examination the choice of M+ or XL+ probe was determined by the Automatic Probe Selection tool (APS) (If, the APS tool advises to use the “XL+ probe” or “switch” continuously between “M+ and XL+ probe”, only the XL+ probe was used); and the operator, assisted by an ultrasonic time motion image, located a portion of the liver which is free of large vascular structures (the depth of measurement was between 35-75 mm for the XL+ probe and 25-65 mm for the M+ probe and the explored volume will be 3 cm^3). For each patient, the operator performed an examination including at least 10 valid measurements or a maximum of 20 attempts, with the XL+ or M+ probe, at the same spot. The entire examination lasted no more than 10-15 minutes. The final stiffness and CAP values was recorded as median values of valid measurements.
Clinical Laboratory Safety Tests: Safety tests were performed for hematology, serum biochemistry, coagulation, lipid profile, and urinalysis: Blood and urine samples were taken as per the Study Flow Chart in Table 19 for routine hematology, serum biochemistry, coagulation and urinalysis tests, along with a Lipid Profile. All samples were analyzed in the central laboratory. All subjects were fasted for a minimum of 8 hours prior to blood sampling. If subjects had not fasted for a minimum of 8 hours, the duration of fasting time was recorded, and subjects encouraged to fast appropriately for the next clinical visit. • Hematology: Full blood count to include red cell count, hemoglobin, hematocrit, white cell count, differential white cell count, platelet count and reticulocyte count. • Serum biochemistry: Urea (blood urea nitrogen; BUN), creatinine, uric acid, total bilirubin, Indirect and Direct Bilirubin, sodium, bicarbonate potassium, phosphorus, calcium chloride, alkaline phosphatase (ALP), aspartate aminotransferase (AST), alanine aminotransferase (ALT), ALT/AST ratio, lactate dehydrogenase (LDH), creatine phosphokinase (CPK), albumin, total protein, cholesterol, triglycerides, glucose, C-reactive protein (CRP). • Coagulation: prothrombin time (PT), international normalized ratio (INR) and activated partial […]. • Lipid Profile: LDL, HDL, and VLDL-C. • Urinalysis: pH, protein, glucose, blood, ketones, leukocytes, leukocyte esterase, bilirubin, specific gravity, urobilinogen and nitrate. […]

rats [1] = details: 28-day dose ranging study; cited from earlier work
Sprague Dawley rats = assay: 26 week rat toxicity study: hematology; type: in vivo; details: male rats, 26 weeks
Protocol: The test and control items were administered to the appropriate animals by once daily oral gavage 7 days a week for a minimum of 26 weeks. The volume for each animal was based on the most recent body weight measurements. The doses were given using a syringe with attached gavage cannula. The first day of dosing was designated as Day 1. The dosing formulations were removed from the refrigerator and stirred for at least 30 minutes before dosing. The dosing formulations were also stirred continuously during dosing.
Sample Collection: Blood was collected via the tail vein unless immediately prior to necropsy, when blood was collected from the orbital sinus under non-recoverable isoflurane anesthesia. Blood was collected in ascending animal order unless samples were collected prior to necropsy where the order of euthanasia was followed. Additional blood samples were obtained (e.g., due to clotting of non-serum samples) if permissible sampling frequency and blood volume were not exceeded. After collection, samples were transferred to the appropriate laboratory for processing. Samples were collected according to the following table.
Hematology: A 0.5 mL blood sample was collected using the anticoagulant K2EDTA. Blood smears were labelled, stained, and stored. The blood smears were analyzed according to the following parameters.
Animals: The study used male and female Sprague Dawley rats purchased from Charles River UK Limited (Margate, Kent, UK). The target age at the initial dosing was 7-8 weeks. The target weight at the initial dosing was 175-300 g (males) and 120-250 g (females). Each animal was identified using a subcutaneously implanted electronic cylindrical, “glass-sealed” TROVAN microchip.

rats [2] = details: 26-week oral, once daily; cited from earlier work
[3] = 0.5% HPMC vehicle; same preparation and storage conditions; concentrations bracketing those used; cited from earlier work
[4] = 6000/3000 mg/kg/day oral gavage

Structure (SMILES): CC/C=C\C[C@H](O)/C=C/C=C\C/C=C\C/C=C\CCCC(=O)OCC [DS102, 15(S)-hydroxy-(5Z,8Z,11Z,13E,17Z)-eicosapentaenoic acid ethyl ester]
- Sirius red-positive area (%)_Median (UUO mice; 50 mg/kg PO QD Day 0-13, Day 14, median): 4.19 ± 3.33%
- Sirius red-positive area (%)_Median (UUO mice; 500 mg/kg PO QD Day 0-13, Day 14, median): 3.08 ± 1.16%
- hepatic fat content as assessed by CAP (NAFLD patients): reduced
- insulin sensitivity and glycemic control (NAFLD patients; 1 g or 2 g per day, 16 weeks): improvement
- markers of metabolic overload (NAFLD patients; 1 g or 2 g per day, 16 weeks): statistically significant reduction
- insulin resistance indices (HOMA-IR and adipo-IR levels) (NAFLD patients; 1 g or 2 g per day, Week 16): improvement
- glycemic control (HbA1c levels) (NAFLD patients; 1 g or 2 g per day, baseline to Week 16, dose-dependent): clinically significant improvements
- insulin, glucose, and free fatty acid levels (NAFLD patients; 1 g or 2 g per day, baseline to Week 16 vs placebo): reduction
- alkaline phosphate (ALP) (NAFLD patients; 2 g): reduced
- Triglycerides (median placebo-corrected % change from baseline) (NAFLD patients; 2 g, Week 16, Full Analysis Set): −40.2%
- insulin resistance indices (HOMA-IR and adipo-IR levels) (NAFLD patients; 2 g, Week 16, Per Protocol Set (PPS)): significant improvements
- Triglycerides (median placebo-corrected % change from baseline) (NAFLD patients; 2 g, Week 16, Subgroup: High Triglycerides (>200 mg/dL)): −20.4%
- Triglycerides (median placebo-corrected % change from baseline) (NAFLD patients; 2 g, Week 16, Subgroup: Triglycerides > Upper Limit Normal (>150 mg/dL)): −39.0%
- lipid profile (total cholesterol, VLDL-C, non-HDL-C, RLP cholesterol, triglyceride levels) (NAFLD patients; Week 16, safety analysis set (SAS)): significantly improved
- oral maximum tolerated dose (MTD) (rats [1]): 6 g/kg/day
- Red Cell Distribution Width (RDW), Mean (Sprague Dawley rats; 2000 mg/kg/day oral gavage): 13.91** %
- Red blood cell count (RBC), Mean (Sprague Dawley rats; 2000 mg/kg/day oral gavage): 8.67 10^12/L
- Reticulocyte count (RETIC), Mean (Sprague Dawley rats; 2000 mg/kg/day oral gavage): 1.546e+11 L⁻¹
- Red Cell Distribution Width (RDW), Mean (Sprague Dawley rats; [4]): 13.60** %
- Red blood cell count (RBC), Mean (Sprague Dawley rats; [4]): 8.81** 10^12/L
- Reticulocyte count (RETIC), Mean (Sprague Dawley rats; [4]): 141.46** 10^9/L
- highest dose tested, showing no adverse effects (rats [2]): 1 mg/kg/day
- stability of the test item in the vehicle [3]: stable
